Read-outs that look alike come from different tables or passages of the source.

One series deals with nociception in rats. In words: Radiant heat tail flick test. The series is classed as in vivo, Wistar rats. As to conditions: butorphanol 1 mg/kg. The source says: The tail flick test was first described by D'Amour and Smith (1941), and remains essentially unchanged in application. (See generally D'Amour, F. E. and Smith, D. L., “A method for determining loss of pain sensation”, J. Pharmacol. Exp. Therap., 72:74-79(1941); Dewey, D. L. and Harris, L. S., The Tail-flick test. In: S. Ehrenpreis and A. Neidle (Eds.), Methods in Narcotic Research, Marcel Dekker, Inc., New York, 1975, pp. 101-109; and Dubner, R. and Ren, K., “Assessing transient and persistent pain in animals” In: P. D. Wall and R. Melzack (Eds.), Textbook of Pain, Churchill Livingstone, London, 1999, pp. 359-369). Quite simply, the tail of a rat or mouse is exposed to radiant heat, and the latency to withdraw is determined. The basal heat intensity is set so that naive rats withdraw their tails within 2 to 3 sec. A cut-off latency of 10 sec (i.e., 3 to 4 times basal control value) is commonly employed to prevent tissue damage. […]
Three groups were employed in the present study with each group comprising of 8 animals. […] Area under the curve was calculated using a graph between % MPE and time. Area under the curve was employed as a quantitative measure of the analgesic effect of the treatments.
Nociceptive threshold was measured with the tail flick test (D'Amour and Smith, 1941). […] Tail flick latency is expressed as a percentage of the maximum possible effect (MPE): […]
In general terms: Thermal pain tests record how soon the animal reacts.

The conditions of series [1]: intranasal, single dose, cited from earlier work.
In series [2] the test system is vincristine induced painful neuropathy. Description: Vincristine induced painful neuropathy, cold allodynia (acetone drop test). As to conditions: vincristine neuropathic rats. The series is classed as in vivo, Wistar rats. The source says: The aim of this study was to evaluate the effect of oral administration of butorphanol in rats with vincristine induced painful neuropathy. The primary measurements were made mechanical and thermal allodynia designed to detect effects of the treatment(s) on neuropathic pain.
Wistar rats weighing 250±20 g were maintained on standard laboratory diet and having free access to tap water ad lib were employed in the present study. They were housed in the animal house and were exposed to 12 hr cycle of light and dark. The experiments were conducted in a semi-sound proof laboratory. Care of the animals was in accordance with guidelines for experimentation on animals.
The vincristine model was adapted from Authier et al (1999). Rats were injected on five alternate days (day 4, 6, 8, 10 & 12) with vincristine (200 μg/kg i.p.) using an injection volume of 2 ml/kg. Thus, the cumulative dose of vincristine was computed to be 1 mg/kg. Tests took place three days after the last injection and continued over the next three weeks. […]
For the assessment of cold allodynia, which was stable for 3 weeks, the rats were placed on a wire mesh covered with a plastic dome and were allowed to habituate until the exploratory behavior diminished. Cold allodynia was measured as the number of foot withdrawal responses after application of stimuli to the plantar surface of the paw. […] Acetone was applied two times (once every 5 min) on the left paw, and the number of reactions (shaking, tapping, or licking) was counted during 30 sec. […] The score was expressed as accumulated numbers of reactions over the trials and determined before and 30 and 60 min after administration of the test drugs. Each individual test was expressed as a percentage of maximum possible effect (% MPE): […]
MPE (%) at 30 min time point was employed as a quantitative measure of the analgesic effect of the test drugs.
The anti-nociceptive effect was plotted assessed having time (relative to dosing time point) on the x-axis and percent maximum possible effect (% MPE) on the y-axis. The results were expressed as mean±standard error of means (S.E.M.). […]

With `Oc1ccc2c(c1)[C@@]13CCCC[C@@]1(O)[C@@H](C2)N(CC1CCC1)CC3` [butorphanol, (−)17-(Cyclobutylmethyl)morphinan-3,14-diol], the tail flick latency result with nociception in rats (intra-gastric, intra-ileal and intra-colonic administration, each, rats) was “significant increase”. Besides, in the series with nociception in rats (tail flick, FIG. 13), the “antinociceptive effect (area under the curve of % MPE vs time), intra-colonic versus intra-gastric or intra-ileal” value is given as “significantly greater antinociceptive effect”. In addition, in series [1] (1 mg), the dizziness was 46%, the headache is reported as 46%, the nausea was 38% and the oxygen desaturation was 3%. The vomiting in series [1] (1 mg) is on record as 17%. In addition, in series [1] (2 mg), the dizziness was 58%, the headache is on record as 29%, the nausea is 46% and the oxygen desaturation was 3%. Besides, the vomiting in series [1] (2 mg) is given as 17%. Besides, the cold allodynia score entry in series [2] (oral 1, 3, 10, 30 mg/kg, FIG. 16) is reported as “dose dependent decrease”. Besides, in series [2] (oral), the “cold allodynia withdrawal threshold in comparison to the control readings” value was “significant increase” and the “time of peak effect post-administration (cold allodynia)” value was determined as 30 min.
